Results published in patent publication US7825217B2, “Polypeptides for bone mineralization” (University of Kansas Medical Center, priority 2006, dated 2010).
pKd: −log10 of the molar value. Blank lines part the entries; values can stand above or below the compound they belong to. Non-standard residues stand in square brackets, D forms with d. Residues, ends and D or L forms follow the SMILES beside them. *: point of attachment. Biotin = O=C1N[C@H]2[C@H](CS[C@H]2CCCCC(=O)*)N1; pS = N[C@@H](COP(=O)(O)O)C(=O)O; Ahx = NCCCCCC(=O)O

Assays:
PHEX = biological target: T1, PHEX (Homo sapiens, UniProt P78562); experiment: Surface plasmon resonance: PHEX analyte binding to immobilized biotinylated ASARM-PO4; details: immobilized biotinylated ASARM-PO4, soluble PHEX analyte, FIG. 4(A); read-out: kinetics of binding
T1 sequence (P78562 46-749 limits assumed): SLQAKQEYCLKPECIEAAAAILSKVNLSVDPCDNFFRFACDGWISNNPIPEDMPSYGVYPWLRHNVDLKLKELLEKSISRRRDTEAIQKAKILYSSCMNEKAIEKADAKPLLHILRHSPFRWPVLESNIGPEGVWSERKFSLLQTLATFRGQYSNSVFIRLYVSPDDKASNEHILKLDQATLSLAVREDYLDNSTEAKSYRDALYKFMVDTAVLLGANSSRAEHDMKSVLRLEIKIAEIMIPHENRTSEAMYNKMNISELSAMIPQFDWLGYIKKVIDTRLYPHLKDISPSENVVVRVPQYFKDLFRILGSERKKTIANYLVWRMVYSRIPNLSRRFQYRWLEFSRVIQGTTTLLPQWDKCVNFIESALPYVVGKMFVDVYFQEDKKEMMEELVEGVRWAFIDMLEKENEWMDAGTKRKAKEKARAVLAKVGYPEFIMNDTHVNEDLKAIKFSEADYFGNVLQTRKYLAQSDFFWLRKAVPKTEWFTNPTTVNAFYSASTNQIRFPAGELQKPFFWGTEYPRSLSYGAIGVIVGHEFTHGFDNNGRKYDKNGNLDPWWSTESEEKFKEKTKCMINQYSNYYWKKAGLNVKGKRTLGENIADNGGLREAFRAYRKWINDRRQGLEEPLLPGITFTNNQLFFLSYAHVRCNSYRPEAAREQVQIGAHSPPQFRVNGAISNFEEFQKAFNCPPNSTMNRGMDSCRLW
Procedure: A Biacore 3000 SPR instrument in conjunction with CM5 research grade chips was used to conduct the surface Plasmon Resonance (SPR) experiments (Biacore, Piscataway, N.J.) as previously described (Rowe et al., Bone 36:33-46 (2005)). The experiments were performed at 25° C. using Biacore buffer (10 mM HEPES pH 7.4, 150 mM NaCl, 0.005% surfactant P20) supplemented with 2 mM ZnCl2 (HBS-P-Zn) or without ZnCl2 (HBS-P) as indicated. Samples were injected at a flow rate of 5 ul/min. The surfaces of research grade CM5 chips were activated by a 6-min. injection of a solution containing 0.2 M N-ethyl-N9-(dimethylaminopropyl) carbodiimide and 0.05 M N-hydroxy-succinimide. Neutravidin (Pierce) was then immobilized on the same chip (ligands) in all four flow-cells using amine coupling chemistry. One neutravidin surface was left blank as a negative control. Biotinylated peptides (including biotinylated ASARM-PO4 peptide) were then added and captured on other individual flow-cells. […] The experiments were repeated on two different chips and immobilized peptides measured as surface plasmon response units as previously described (Rowe et al., Bone 36:33-46 (2005)). The response unit or RU is a measure of surface charge density oscillation and surface […] generation as detected by changes in incident refractive index monitored by the Biacore optical unit. […]

[1] = tested on: Murine bone marrow stromal cell (BMSCs) cultures; experiment: Bone marrow stromal cell mineralization assay (alizarin red staining); type: cell-based, mice
Procedure: The epiphyses of the bones from wild type (“WT”) and HYP mice were removed, and whole marrow was flushed from the diaphyses by centrifugation at 11500 rpm for 30 seconds in standard culture medium, which consisted of α-MEM (Mediatech Inc, Herndon Va., USA) supplemented with 10% FBS (Mediatech Inc, Herndon Va., USA), 10 U/ml penicillin/100 ug/ml streptomycin. The supernatant was removed, and the cell pellet was resuspended in fresh standard medium. The resuspended cells were plated in standard 25 cm^2 flasks and allowed to grow until confluence. The cells were passaged with 0.25% trypsin and 0.02% EDTA (Sigma Aldrich, Saint Louis, Mo., USA). Cells were plated on 24-well plastic culture plates at a concentration of 10×10^4 cells/well. Starting 72 hours after seeding (referred to as Day 0) nonadherent cells were discarded, and the medium was changed to one that supports osteoblast differentiation, that is, standard media plus 10 mM B glycerophosphate (Sigma Aldrich, Saint Louis, Mo., USA) and 50 mg/liter ascorbic acid (Sigma Aldrich, Saint Louis, Mo., USA). […] For quantification of staining, 500 μL 10% (v/v) acetic acid was added to each well, and the plate was incubated at room temperature for 30 min. with shaking. […] 150 μL aliquots of the supernatant were read in triplicate at 450 nm in 96-well format using opaque-walled, transparent-bottomed plates.

pKd (PHEX): 6.77
Compound: N=C(N)NCCC[C@H](NC(=O)CCCCCNC(=O)CCCC[C@@H]1SC[C@@H]2NC(=O)N[C@@H]21)C(=O)N[C@@H](CC(=O)O)C(=O)N[C@@H](CC(=O)O)C(=O)N[C@@H](CO)C(=O)N[C@@H](CO)C(=O)N[C@@H](CCC(=O)O)C(=O)N[C@@H](CO)C(=O)N[C@@H](CO)C(=O)N[C@@H](CC(=O)O)C(=O)N[C@@H](CO)C(=O)NCC(=O)N[C@@H](COP(=O)(O)O)C(=O)N[C@@H](CO)C(=O)N[C@@H](COP(=O)(O)O)C(=O)N[C@@H](CCC(=O)O)C(=O)N[C@@H](COP(=O)(O)O)C(=O)N[C@@H](CC(=O)O)C(=O)NCC(=O)N[C@@H](CC(=O)O)C(=O)O [biotinylated-ASARM-PO4] ({Biotin-Ahx}-RDDSSESSDSG[pS]S[pS]E[pS]DGD-OH)

Compound: NH2-LKGDHSGGNGNYTGLDYNIPGYFRSTIPFHGEVDKENVAR-OH (H-LKGDHSGGNGNYTGLDYNIPGYFRSTIPFHGEVDKENVAR-OH; listed as Homo sapiens) [SPR5]
mineralization (alizarin red) ([1]; BMSC cultures supplemented with 10 μM peptide alone): mineralization occurs with great efficiency

Compound: NH2-RDDSSESSDSGS(PO3H2)SS(PO3H2)ES(PO3H2)DGD-OH (H-RDDSSESSDSG[pS]S[pS]E[pS]DGD-OH; listed as Homo sapiens) [ASARM-PO4]
mineralization (alizarin red) ([1]; BMSC cultures supplemented with 5 μM ASARM-PO4 alone): marked and statistically significant inhibition of mineralization
